Experimental data taken from US12502362B2, “Inhibitors of nucleotidyltransferase superfamily enzymes as antibiotics” (priority 2017, dated 2025).
Like-named read-outs stand apart in the source and are kept apart here.

Columns and labels:
[1] = test system: S. aureus ATCC strains and MRSA; type: cell-based, Staphylococcus aureus
[2] = test system: Staphylococcus epidermidis; type: cell-based
Experimental: (§1) It was also tested whether compounds #63 and #285 can inhibit other coagulase-negative Staphylococcus (CNS) including S. epidermidis, S. hominis, etc. […].

Staphylococcus hominis = type: cell-based
Experimental: as §1

[3] = test system: Coagulase negative Staphylococcus; assay: Antibiotic susceptibility of coagulase negative Staphylococcus strains; type: cell-based
[4] = test system: MDR Acinetobacter baumannii; type: cell-based
Source text: (§2) All these MDR-bacteria are at least resistant to two classes of the antibiotics among five groups and/or specific antibiotics including quinolones/fluorquinolones, carbapenems, cephalosporins, aminoglycosides and piperacillin-tazobactam.

MDR E. coli = type: cell-based
Source text: as §2

Citrobacter koseri = assay: Antibiotic susceptibility of Citrobacter koseri strain; type: cell-based; details: Ck1 (Citrobacter koseri)
Source text: as §2

[5] = test system: Enterobacter cloacae complex; assay: Antibiotic susceptibility of Enterobacter cloacae complex strain; type: cell-based; details: Ecc1 (Enterobacter cloacae complex)
Source text: as §2

Morganella morganii = assay: Antibiotic susceptibility of Morganella morganii strain; type: cell-based; details: Mm1 (Morganella morganii)
Source text: as §2

Klebsiella pneumonia = assay: Antibiotic susceptibility of Klebsiella pneumonia strains; type: cell-based
Source text: as §2

[6] = CNS1 (Coagulase negative Staphylococcus)
[7] = CNS2 (Coagulase negative Staphylococcus)

In the case of `O=C1CN(/N=C/c2ccc([N+](=O)[O-])o2)C(=O)N1` [NIT, Nitrofurantoin], the Antibiotic susceptibility ([1]; S. aureus ATCC 25923) is reported as “S”, the Antibiotic susceptibility ([1]; S. aureus ATCC 29213) is reported as “S” and the Antibiotic susceptibility ([1]; S. aureus ATCC BAA 976) is reported as “S”. The Antibiotic susceptibility ([1]; S. aureus ATCC BAA 977) was “S”, the Antibiotic susceptibility ([1]; S. aureus ATCC BAA 1026) was “S” and the Antibiotic susceptibility ([1]; Sa1 (MRSA)) was “S”. The Antibiotic susceptibility ([1]; Sa2 (MRSA)) was “S”, the Antibiotic susceptibility ([1]; Sa3 (MRSA)) was “S” and the Antibiotic susceptibility ([1]; Sa6 (MRSA)) was “S”. For the same compound, the Antibiotic susceptibility ([1]; Sa7 (MRSA)) was “S”, the Antibiotic susceptibility ([1]; Sa9 (MRSA)) was “S” and the Antibiotic susceptibility ([1]; Sa11 (MRSA)) was “S”. The Antibiotic susceptibility ([1]; Sa12 (MRSA)) was “S”, the Antibiotic susceptibility ([1]; Sa14 (MRSA)) was “S” and the Antibiotic susceptibility ([1]; Sa15 (MRSA)) was “S”. The Antibiotic susceptibility ([1]; Sa16 (MRSA)) was “S”, the Antibiotic susceptibility ([1]; Sa17 (MRSA)) was “S” and the Antibiotic susceptibility ([1]; Sa18 (MRSA)) was “S”. The Antibiotic susceptibility ([1]; Sa19 (MRSA)) was “S”, the Antibiotic susceptibility ([1]; Sa20 (MRSA)) was “S” and the Antibiotic susceptibility ([1]; Sa21 (MRSA)) was “S”. The Antibiotic susceptibility ([1]; Sa22 (MRSA)) was “S”, the Antibiotic susceptibility ([1]; Sa23 (MRSA)) was “S” and the Antibiotic susceptibility [2] was “S”. The Antibiotic susceptibility (Staphylococcus hominis) was “S”, the Antibiotic susceptibility [3, 6] was “S” and the Antibiotic susceptibility [3, 7] was “S”. The Antibiotic susceptibility ([4]; Ab1 (Acinetobacter baumannii)) was “R”, the Antibiotic susceptibility ([4]; Ab2 (Acinetobacter baumannii)) was “R” and the Antibiotic susceptibility ([4]; Ab3 (Acinetobacter baumannii)) was “R”. The Antibiotic susceptibility ([4]; Ab4 (Acinetobacter baumannii)) was “R”, the Antibiotic susceptibility ([4]; Ab5 (Acinetobacter baumannii)) was “R” and the Antibiotic susceptibility (MDR E. coli; Ec1 (E. coli)) was “S”. The Antibiotic susceptibility (MDR E. coli; Ec2 (E. coli)) was “S”, the Antibiotic susceptibility (MDR E. coli; Ec3 (E. coli)) was “S” and the Antibiotic susceptibility (MDR E. coli; Ec4 (E. coli)) was “S”. For the same compound, the Antibiotic susceptibility (MDR E. coli; Ec5 (E. coli)) was “S”, the Antibiotic susceptibility (Citrobacter koseri) was “R” and the Antibiotic susceptibility [5] was “S”. The Antibiotic susceptibility (Morganella morganii) was “R”, the Antibiotic susceptibility (Klebsiella pneumonia; Kp1 (Klebsiella pneumonia)) was “S” and the Antibiotic susceptibility (Klebsiella pneumonia; Kp6 (Klebsiella pneumonia)) was “R”.

With Gentamicin the Antibiotic susceptibility ([1]; S. aureus ATCC 25923) was “S”, the Antibiotic susceptibility ([1]; S. aureus ATCC 29213) was “S” and the Antibiotic susceptibility ([1]; S. aureus ATCC BAA 976) was “S”. The Antibiotic susceptibility ([1]; S. aureus ATCC BAA 977) was “S”, the Antibiotic susceptibility ([1]; S. aureus ATCC BAA 1026) was “R” and the Antibiotic susceptibility ([1]; Sa1 (MRSA)) was “S”. For the same compound, the Antibiotic susceptibility ([1]; Sa2 (MRSA)) was “S”, the Antibiotic susceptibility ([1]; Sa3 (MRSA)) was “S” and the Antibiotic susceptibility ([1]; Sa5 (MRSA)) was “S”. The Antibiotic susceptibility ([1]; Sa6 (MRSA)) was “S”, the Antibiotic susceptibility ([1]; Sa7 (MRSA)) was “S” and the Antibiotic susceptibility ([1]; Sa8 (MRSA)) was “S”. The Antibiotic susceptibility ([1]; Sa9 (MRSA)) was “S”, the Antibiotic susceptibility ([1]; Sa10 (MRSA)) was “S” and the Antibiotic susceptibility ([1]; Sa11 (MRSA)) was “S”. For the same compound, the Antibiotic susceptibility ([1]; Sa12 (MRSA)) was “S”, the Antibiotic susceptibility ([1]; Sa14 (MRSA)) was “S” and the Antibiotic susceptibility ([1]; Sa15 (MRSA)) was “S”. For the same compound, the Antibiotic susceptibility ([1]; Sa16 (MRSA)) was “S”, the Antibiotic susceptibility ([1]; Sa17 (MRSA)) was “S” and the Antibiotic susceptibility ([1]; Sa18 (MRSA)) was “S”. The Antibiotic susceptibility ([1]; Sa19 (MRSA)) was “S”, the Antibiotic susceptibility ([1]; Sa20 (MRSA)) was “S” and the Antibiotic susceptibility ([1]; Sa21 (MRSA)) was “S”. The Antibiotic susceptibility ([1]; Sa22 (MRSA)) was “S”, the Antibiotic susceptibility ([1]; Sa23 (MRSA)) was “S” and the Antibiotic susceptibility ([2]; Se1 (Staphylococcus epidermidis)) was “S”. For the same compound, the Antibiotic susceptibility ([2]; Se2 (Staphylococcus epidermidis)) was “S”, the Antibiotic susceptibility ([2]; Se3 (Staphylococcus epidermidis)) was “R” and the Antibiotic susceptibility ([2]; Se4 (Staphylococcus epidermidis)) was “R”. For the same compound, the Antibiotic susceptibility ([2]; Se5 (Staphylococcus epidermidis)) was “I”, the Antibiotic susceptibility (Staphylococcus hominis; Sh1 (Staphylococcus hominis)) was “S” and the Antibiotic susceptibility (Staphylococcus hominis; Sh2 (Staphylococcus hominis)) was “S”. For the same compound, the Antibiotic susceptibility (Staphylococcus hominis; Sh3 (Staphylococcus hominis)) was “S”, the Antibiotic susceptibility [3, 6] was “S” and the Antibiotic susceptibility [3, 7] was “S”. For the same compound, the Antibiotic susceptibility ([4]; Ab1 (Acinetobacter baumannii)) was “S”, the Antibiotic susceptibility ([4]; Ab2 (Acinetobacter baumannii)) was “R” and the Antibiotic susceptibility ([4]; Ab3 (Acinetobacter baumannii)) was “R”. The Antibiotic susceptibility ([4]; Ab4 (Acinetobacter baumannii)) was “R”, the Antibiotic susceptibility ([4]; Ab5 (Acinetobacter baumannii)) was “R” and the Antibiotic susceptibility (MDR E. coli; Ec1 (E. coli)) was “R”. For the same compound, the Antibiotic susceptibility (MDR E. coli; Ec2 (E. coli)) was “R”, the Antibiotic susceptibility (MDR E. coli; Ec3 (E. coli)) was “R” and the Antibiotic susceptibility (MDR E. coli; Ec4 (E. coli)) was “S”. The Antibiotic susceptibility (MDR E. coli; Ec5 (E. coli)) was “S”, the Antibiotic susceptibility (Citrobacter koseri) was “R” and the Antibiotic susceptibility [5] was “R”. For the same compound, the Antibiotic susceptibility (Morganella morganii) was “R”, the Antibiotic susceptibility (Klebsiella pneumonia; Kp1 (Klebsiella pneumonia)) was “S” and the Antibiotic susceptibility (Klebsiella pneumonia; Kp6 (Klebsiella pneumonia)) was “S”.

For Trimethoprim-Sulfamethoxazole [SXT], the Antibiotic susceptibility ([1]; S. aureus ATCC 25923) was “S”, the Antibiotic susceptibility ([1]; S. aureus ATCC 29213) was “S” and the Antibiotic susceptibility ([1]; S. aureus ATCC BAA 976) was “S”. The Antibiotic susceptibility ([1]; S. aureus ATCC BAA 977) was “S”, the Antibiotic susceptibility ([1]; S. aureus ATCC BAA 1026) was “R” and the Antibiotic susceptibility ([1]; Sa1 (MRSA)) was “R”. The Antibiotic susceptibility ([1]; Sa2 (MRSA)) was “S”, the Antibiotic susceptibility ([1]; Sa3 (MRSA)) was “S” and the Antibiotic susceptibility ([1]; Sa5 (MRSA)) was “S”. The Antibiotic susceptibility ([1]; Sa6 (MRSA)) was “S”, the Antibiotic susceptibility ([1]; Sa7 (MRSA)) was “S” and the Antibiotic susceptibility ([1]; Sa8 (MRSA)) was “S”. The Antibiotic susceptibility ([1]; Sa9 (MRSA)) was “S”, the Antibiotic susceptibility ([1]; Sa10 (MRSA)) was “S” and the Antibiotic susceptibility ([1]; Sa11 (MRSA)) was “S”. The Antibiotic susceptibility ([1]; Sa12 (MRSA)) was “S”, the Antibiotic susceptibility ([1]; Sa14 (MRSA)) was “S” and the Antibiotic susceptibility ([1]; Sa15 (MRSA)) was “R”. The Antibiotic susceptibility ([1]; Sa16 (MRSA)) was “S”, the Antibiotic susceptibility ([1]; Sa17 (MRSA)) was “S” and the Antibiotic susceptibility ([1]; Sa18 (MRSA)) was “S”. The Antibiotic susceptibility ([1]; Sa19 (MRSA)) was “S”, the Antibiotic susceptibility ([1]; Sa20 (MRSA)) was “S” and the Antibiotic susceptibility ([1]; Sa21 (MRSA)) was “S”. The Antibiotic susceptibility ([1]; Sa22 (MRSA)) was “S”, the Antibiotic susceptibility ([1]; Sa23 (MRSA)) was “S” and the MRSA strains resistant ([1]; number of resistant strains out of 21 MRSA strains) was 2/21. For the same compound, the Antibiotic susceptibility [2] was “R”, the Antibiotic susceptibility (Staphylococcus hominis) was “R and S” and the Antibiotic susceptibility [3, 6] was “S”. For the same compound, the Antibiotic susceptibility [3, 7] was “S”, the Antibiotic susceptibility ([4]; Ab1 (Acinetobacter baumannii)) was “R” and the Antibiotic susceptibility ([4]; Ab2 (Acinetobacter baumannii)) was “R”. For the same compound, the Antibiotic susceptibility ([4]; Ab3 (Acinetobacter baumannii)) was “R”, the Antibiotic susceptibility ([4]; Ab4 (Acinetobacter baumannii)) was “R” and the Antibiotic susceptibility ([4]; Ab5 (Acinetobacter baumannii)) was “R”. For the same compound, the Antibiotic susceptibility (MDR E. coli; Ec1 (E. coli)) was “R”, the Antibiotic susceptibility (MDR E. coli; Ec2 (E. coli)) was “R” and the Antibiotic susceptibility (MDR E. coli; Ec3 (E. coli)) was “R”. For the same compound, the Antibiotic susceptibility (MDR E. coli; Ec4 (E. coli)) was “S”, the Antibiotic susceptibility (MDR E. coli; Ec5 (E. coli)) was “R” and the Antibiotic susceptibility (Citrobacter koseri) was “R”. The Antibiotic susceptibility [5] was “S”, the Antibiotic susceptibility (Morganella morganii) was “R” and the Antibiotic susceptibility (Klebsiella pneumonia; Kp1 (Klebsiella pneumonia)) was “R”. The Antibiotic susceptibility (Klebsiella pneumonia; Kp6 (Klebsiella pneumonia)) was “R”.
